Test results: paper PMC3973950, “Synthesis of 5-arylidine amino-1,3,4-thiadiazol-2-[(N-substituted benzyol)]sulphonamides endowed with potent antioxidants and anticancer activity induces growth inhibition in HEK293, BT474 and NCI-H226 cells” (Medicinal Chemistry Research, 2013)

Assays:
[1] = In vitro cytotoxicity by MTT assay, HEK 293; assay type: cell-based, human; details: human, HEK 293 cells; for cytotoxicity at 72 h, 0.005 µM / cytotoxicity at 72 h, 0.015 µM / cytotoxicity at 72 h, 0.045 µM / cytotoxicity at 72 h, 0.13 µM / cytotoxicity at 72 h, 0.41 µM / cytotoxicity at 72 h, 1.23 µM / cytotoxicity at 72 h, 3.7 µM / cytotoxicity at 72 h, 11.11 µM / cytotoxicity at 72 h, 33.33 µM / cytotoxicity at 72 h, 100 µM: read-out: % cytotoxicity (100 − % cell survival) of HEK 293 cell line
In short: (§1)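 Cells seeded at ~10,000/well in RPMI-1640 with 10 % newborn calf serum, grown 24 h, then exposed to compounds for 72 h at 37 °C, 5 % CO2. Viability read by MTT (4 h), formazan dissolved in propanol, absorbance at 490 nm.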

[2] = tested on: BT474 (breast cancer cell line); assay: In vitro cytotoxicity by MTT assay, BT474; assay type: cell-based; details: Homo sapiens, 72 h, read-out: % cytotoxicity (100 − % cell survival) of BT474 cell line; for cytotoxicity at 0.005 µM: BT-474, 0.005 μM; for cytotoxicity at 0.015 µM: BT-474, 0.015 μM; for cytotoxicity at 0.045 µM: BT-474, 0.045 μM; for cytotoxicity at 0.13 µM: BT-474, 0.13 μM; for cytotoxicity at 0.41 µM: BT-474, 0.41 μM; for cytotoxicity at 1.23 µM: BT-474, 1.23 μM; for cytotoxicity at 3.7 µM: BT-474, 3.7 μM; for cytotoxicity at 11.11 µM: BT-474, 11.11 μM; for cytotoxicity at 33.33 µM: BT-474, 33.33 μM; for cytotoxicity at 100 µM: BT-474, 100 μM
In short: as §1

[3] = In vitro cytotoxicity by MTT assay, NCI-H226; assay type: cell-based; details: human, NCI-H226 lung cancer cells, 0.015 μM, read-out: % Cytotoxicity (100 − % cell survival) of NCI-H226 cell line
In short: as §1

[4] = tested on: NCI-H226 (lung cancer cell line); assay: In vitro cytotoxicity by MTT assay, NCI-H226; assay type: cell-based; details: Homo sapiens, 72 h; for cytotoxicity at 0.005 µM: NCI-H226, 0.005 μM; for cytotoxicity at 0.005 µM / cytotoxicity at 0.045 µM / cytotoxicity at 0.13 µM / cytotoxicity at 0.41 µM / cytotoxicity at 1.23 µM / cytotoxicity at 3.7 µM / cytotoxicity at 11.11 µM / cytotoxicity at 33.33 µM / cytotoxicity at 100 µM: read-out: % Cytotoxicity (100 − % cell survival) of NCI-H226 cell line; for cytotoxicity at 0.045 µM: NCI-H226, 0.045 μM; for cytotoxicity at 0.13 µM: NCI-H226, 0.13 μM; for cytotoxicity at 0.41 µM: NCI-H226, 0.41 μM; for cytotoxicity at 1.23 µM: NCI-H226, 1.23 μM; for cytotoxicity at 3.7 µM: NCI-H226, 3.7 μM; for cytotoxicity at 11.11 µM: NCI-H226, 11.11 μM; for cytotoxicity at 33.33 µM: NCI-H226, 33.33 μM; for cytotoxicity at 100 µM: NCI-H226, 100 μM
In short: as §1

[5] = tested on: HEK 293, M468 and NCI-H226; assay: In vitro cytotoxicity by MTT assay, summary over all cell lines; assay type: cell-based; details: on all cell lines
Experimental: The cancer cell line cultures of HEK 293 ([…]), BT474 (breast cancer cell line) and NCI-H226 (lung cancer) were obtained from Pasteur Institute of India, Coonoor, India, and were cultured in RPMI-1640 and 10 % heat-[…] New born calf serum with antibiotics [penicillin ([…]), streptomycin (100 μg/mL) and amphotericin B (25 μg/mL)]. The cells were maintained at 37 °C in a humidified atmosphere with 5 % CO2 and were subcultured twice a week.
The monolayer cell culture (100 μL) was trypsinized, and the cell count was adjusted to […] using medium containing 10 % new born calf serum. To each well of the 96-well microtitre plate, the diluted cell suspension (approximately 10,000 cells) (0.1 mL) was added and kept for 24 h in incubator at 37 °C in 5 % CO2 atmosphere for cell monolayer formation. After 24 h, when a partial monolayer was formed at the bottom of the well, the supernatant was flicked off, the monolayer was washed once, and different drugs, i.e. synthesized compounds (100 μL), were added to the cells in microtitre plates. The plates were then incubated at 37 °C for 3 days in 5 % CO2 atmosphere, and microscopic examination was carried out and observations recorded every 24 h. After 72 h, the sample solution in the wells was flicked off; MTT dye ([…]) was added to each well; plates were gently shaken and incubated for 4 h at 37 °C in 5 % CO2 incubator. The supernatant was removed and propanol (50 μL) was added; the plates were gently shaken to solubilize the formed formazan. The absorbance was measured using a microplate reader at a wavelength of 490 nm (Edmondson et al., [1988]; Prasad et al., [2005]; Chiruvella et al., [2008]; Chang et al., [2007]).

Row | Compound | cytotoxicity at 72 h, 0.005 µM [1] | cytotoxicity at 72 h, 0.015 µM [1] | cytotoxicity at 72 h, 0.045 µM [1] | cytotoxicity at 72 h, 0.13 µM [1] | cytotoxicity at 72 h, 0.41 µM [1] | cytotoxicity at 72 h, 1.23 µM [1] | cytotoxicity at 72 h, 3.7 µM [1] | cytotoxicity at 72 h, 11.11 µM [1] | cytotoxicity at 72 h, 33.33 µM [1] | cytotoxicity at 72 h, 100 µM [1] | cytotoxicity at 0.005 µM [2] | cytotoxicity at 0.015 µM [2] | cytotoxicity at 0.045 µM [2] | cytotoxicity at 0.13 µM [2] | cytotoxicity at 0.41 µM [2] | cytotoxicity at 1.23 µM [2] | cytotoxicity at 3.7 µM [2] | cytotoxicity at 11.11 µM [2] | cytotoxicity at 33.33 µM [2] | cytotoxicity at 100 µM [2] | also measured
1 | CC(=O)Nc1ccc(S(=O)(=O)Nc2nnc(S(=O)(=O)NC(=O)c3ccccc3N)s2)cc1 [Compound 6b] | 35.6% | 36.2% | 37.9% | 39.9% | 42.6% | 43.1% | 44% | 45.3% | 46.8% | 48.2% | 24.3% | 25.1% | 25.8% | 26.2% | 27.1% | 28.1% | 28.7% | 29.3% | 30.3% | 32% | cytotoxicity at 72 h, 0.015 µM [3]: 37.3%; cytotoxicity at 0.005 µM [4]: 36.3%; cytotoxicity at 0.045 µM [4]: 38.4%; cytotoxicity at 0.13 µM [4]: 39.1%; cytotoxicity at 0.41 µM [4]: 42%; cytotoxicity at 1.23 µM [4]: 42.7%; cytotoxicity at 3.7 µM [4]: 43.4%; cytotoxicity at 11.11 µM [4]: 45.3%; cytotoxicity at 33.33 µM [4]: 47.1%; cytotoxicity at 100 µM [4]: 49.1%; cytotoxic activity compared with all synthesized compounds [5]: moderate activity
2 | CC(=O)Nc1ccc(S(=O)(=O)Nc2nnc(S(=O)(=O)NC(=O)c3ccc([N+](=O)[O-])cc3)s2)cc1 [Compound 6e] | 39.1% | 42% | 42.7% | 43.4% | 45.3% | 47.1% | 49.1% | 49.9% | 51.2% | 55% | 27.1% | 28% | 28.1% | 28.7% | 29.4% | 30.1% | 31.1% | 32.5% | 34.8% | 37.3% | cytotoxicity at 72 h, 0.015 µM [3]: 41.2%; cytotoxicity at 0.005 µM [4]: 38.8%; cytotoxicity at 0.045 µM [4]: 42.4%; cytotoxicity at 0.13 µM [4]: 45.4%; cytotoxicity at 0.41 µM [4]: 47.6%; cytotoxicity at 1.23 µM [4]: 48.6%; cytotoxicity at 3.7 µM [4]: 49.2%; cytotoxicity at 11.11 µM [4]: 50.8%; cytotoxicity at 33.33 µM [4]: 51.1%; cytotoxicity at 100 µM [4]: 54.5%; cytotoxic activity compared with all synthesized compounds [5]: moderate activity
3 | Nc1ccc(S(=O)(=O)Nc2nnc(S(=O)(=O)NC(=O)c3cccc([N+](=O)[O-])c3)s2)cc1 [Compound 7f] | 33.2% | 35.1% | 36% | 37% | 37.5% | 38.7% | 39.5% | 40.6% | 41.2% | 43.8% | 42.4% | 45.8% | 47.2% | 50.1% | 52.2% | 54.2% | 56.7% | 58.6% | 60.3% | 64.1% | cytotoxicity at 72 h, 0.015 µM [3]: 39.3%; cytotoxicity at 0.005 µM [4]: 38.8%; cytotoxicity at 0.045 µM [4]: 40.1%; cytotoxicity at 0.13 µM [4]: 42.6%; cytotoxicity at 0.41 µM [4]: 46.1%; cytotoxicity at 1.23 µM [4]: 52.1%; cytotoxicity at 3.7 µM [4]: 56.4%; cytotoxicity at 11.11 µM [4]: 60.7%; cytotoxicity at 33.33 µM [4]: 65.8%; cytotoxicity at 100 µM [4]: 68%; CC50 ([4]; NCI-H226, concentration at which 50 % of the cells are dead, read-out: CTC50 (cytotoxicity concentration)): 1.78 µM; cytotoxic activity compared with all synthesized compounds [5]: more potent
4 | CC(=O)Nc1ccc(S(=O)(=O)Nc2nnc(S(=O)(=O)NC(=O)c3cccc([N+](=O)[O-])c3)s2)cc1 [Compound 6f] | 39.3% | 42.2% | 45.4% | 47.2% | 49.1% | 51.2% | 54.2% | 58.6% | 59.3% | 62.4% | 29.1% | 30.1% | 32.1% | 33.4% | 35.8% | 37.2% | 40.6% | 42.2% | 45.3% | 50.8% | CC50 (50% cytotoxic concentration) at 72 h ([1]; HEK 293, concentration at which 50 % of the cells are dead, read-out: CTCC50 (cytotoxicity concentration)): 1.12 µM; cytotoxicity at 72 h, 0.015 µM [3]: 44.9%; cytotoxicity at 0.005 µM [4]: 41.3%; cytotoxicity at 0.045 µM [4]: 46.5%; cytotoxicity at 0.13 µM [4]: 48.3%; cytotoxicity at 0.41 µM [4]: 51.3%; cytotoxicity at 1.23 µM [4]: 54.6%; cytotoxicity at 3.7 µM [4]: 55.2%; cytotoxicity at 11.11 µM [4]: 57.1%; cytotoxicity at 33.33 µM [4]: 59.6%; cytotoxicity at 100 µM [4]: 66%; cytotoxic activity compared with all synthesized compounds [5]: more potent
